Patent publication US7767815B2, “Fused tricyclic mGluR1 antagonists as therapeutic agents” (Schering Corporation, priority 2005, dated 2010)
Read-outs that look alike come from different tables or passages of the source.

Molecular target: T1, hmGluR1 receptor (Homo sapiens, UniProt Q13255)
T1 construct: expressed in transfected cells; host or cells: CHO
Test: mGluR1 IC50 determination, FLIPR intracellular calcium mobilization against Quisqualate
Assay type: cell-based
Details: CHO cell line stably expressing hmGluR1, against Quisqualate 1 μM (EC80), compounds added 10 minutes before
Protocol: A CHO cell line stably expressing hmGluR1 receptor was established. One day prior to assay, cells were split in growth media at concentration of 50,000 cells/well in a volume of 100 μl and seeded into black clear-bottom 96-well plates. After two to six hours, when cells were well attached to the plate, growth medium was replaced with assay medium (100 μL) consisting of DMEM high glucose, supplemented with GPT (1 U/mL) and sodium pyruvate, 1 mM. Following overnight incubation, medium was discarded and cells were loaded for 2 hours with dye from the Calcium 3 Assay Reagent Kit (Molecular Devices, # R8033), prepared according to manufacturers' instructions. […] Test compounds were added 10 minutes before Quisqualate.

T1 sequence (Q13255 19-1194): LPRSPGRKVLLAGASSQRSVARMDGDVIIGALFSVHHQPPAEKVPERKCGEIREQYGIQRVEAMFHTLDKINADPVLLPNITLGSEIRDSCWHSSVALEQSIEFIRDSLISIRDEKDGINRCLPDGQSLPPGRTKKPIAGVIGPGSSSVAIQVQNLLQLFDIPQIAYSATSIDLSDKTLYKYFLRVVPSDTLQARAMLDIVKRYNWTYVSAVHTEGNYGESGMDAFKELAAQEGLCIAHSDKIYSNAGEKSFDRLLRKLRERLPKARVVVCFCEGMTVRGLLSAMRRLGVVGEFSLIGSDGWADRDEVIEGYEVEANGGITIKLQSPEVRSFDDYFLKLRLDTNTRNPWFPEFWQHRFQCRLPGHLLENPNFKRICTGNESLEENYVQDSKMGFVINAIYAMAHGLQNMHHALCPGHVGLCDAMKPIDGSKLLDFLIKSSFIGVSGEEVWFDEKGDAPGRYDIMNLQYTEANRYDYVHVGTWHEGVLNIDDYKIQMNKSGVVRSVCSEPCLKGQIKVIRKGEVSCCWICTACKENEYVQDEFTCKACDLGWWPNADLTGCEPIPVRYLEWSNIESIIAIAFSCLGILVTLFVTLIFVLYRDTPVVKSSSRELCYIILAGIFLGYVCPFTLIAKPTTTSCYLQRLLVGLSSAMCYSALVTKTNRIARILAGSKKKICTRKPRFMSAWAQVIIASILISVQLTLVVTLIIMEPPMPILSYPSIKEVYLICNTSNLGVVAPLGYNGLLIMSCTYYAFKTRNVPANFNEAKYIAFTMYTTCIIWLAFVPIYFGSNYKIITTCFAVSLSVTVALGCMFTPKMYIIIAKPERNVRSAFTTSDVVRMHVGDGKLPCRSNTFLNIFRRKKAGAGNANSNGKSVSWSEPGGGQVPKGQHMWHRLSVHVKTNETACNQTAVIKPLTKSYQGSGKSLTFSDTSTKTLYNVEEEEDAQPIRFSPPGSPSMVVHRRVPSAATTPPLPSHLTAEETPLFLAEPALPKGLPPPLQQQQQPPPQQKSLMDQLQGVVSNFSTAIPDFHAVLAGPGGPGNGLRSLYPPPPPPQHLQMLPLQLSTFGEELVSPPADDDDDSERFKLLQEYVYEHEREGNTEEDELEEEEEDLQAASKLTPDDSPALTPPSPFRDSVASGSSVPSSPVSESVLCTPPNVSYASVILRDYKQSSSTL

Row | Compound | IC50 (read-out: mGluR1 IC50 rating) | IC50 (read-out: mGluR1 IC50)
1 | CCNc1ccnc2sc3c(=O)n(-c4ccc(OC)cc4F)ccc3c12 [19BG] | 20 to 100 nM | –
2 | O=c1c2sc3nccc(NCCO)c3c2ccn1-c1ccc(Cl)cc1 [19F] | < 20 nM | –
3 | COCCCNc1ccnc2sc3c(=O)n(-c4ccc(OC)cc4)ccc3c12 [19W] | 20 to 100 nM | –
4 | COc1ccc(-n2ccc3c(sc4nccc(NCC(F)(F)F)c43)c2=O)cc1 [19S] | 20 to 100 nM | –
5 | CCNc1ccnc2sc3c(=O)n(-c4ccc(OC)c(F)c4)ccc3c12 [19AU] | < 20 nM | –
6 | COCCNc1ccnc2sc3c(=O)n(-c4ccc(Cl)cc4)ccc3c12 [19G] | 20 to 100 nM | –
7 | C[C@@H](O)CNc1ccnc2sc3c(=O)n(-c4ccc(Cl)cc4)ccc3c12 [19E] | 20 to 100 nM | –
8 | COc1ccc(-n2ccc3c(sc4nccc(NCCCCO)c43)c2=O)cc1 [19AA] | 20 to 100 nM | –
9 | COc1ccc(-n2ccc3c(sc4nccc(NC5CC5)c43)c2=O)cc1F [19AV] | < 20 nM | 9.8 nM
10 | COc1ccc(-n2ccc3c(sc4ncnc(OC)c43)c2=O)cc1 [23B] | 100 to 1000 nM | –
11 | COc1ccnc2sc3c(=O)n(-c4ccc5occc5c4)ccc3c12 [16Q] | < 20 nM | –
12 | COc1ccnc2sc3c(=O)n(-c4ccc5scnc5c4)ccc3c12 [16G] | < 20 nM | –
13 | COc1ccnc2sc3c(=O)n(-c4ccccc4)ccc3c12 [16M] | < 20 nM | –
14 | COc1ccnc2sc3c(=O)n(-c4ccc5c(c4)OCCO5)ccc3c12 [16P] | 20 to 100 nM | –
15 | COc1ncnc2sc3c(=O)n(-c4ccc(C)cc4)ccc3c12 [23A] | < 20 nM | –
16 | C#CCNc1ccnc2sc3c(=O)n(-c4ccc(Cl)cc4)ccc3c12 [19AE] | < 20 nM | –
17 | CCNc1ccnc2sc3c(=O)n(-c4ccc(C#N)cc4)ccc3c12 [19BB] | 20 to 100 nM | –
18 | Cc1ccc(-n2ccc3c(sc4nccc(NCCO)c43)c2=O)cc1 [19L] | 20 to 100 nM | –
19 | C#CCNc1ccnc2sc3c(=O)n(-c4ccc(OC)cc4)ccc3c12 [19X] | 20 to 100 nM | –
20 | Cc1ccc(-n2ccc3c(sc4nccc(NCC(F)(F)F)c43)c2=O)cc1 [19R] | 20 to 100 nM | –
21 | Cc1ccc(-n2ccc3c(sc4nccc(N)c43)c2=O)cc1 [19AC] | 20 to 100 nM | –
22 | COc1ccnc2sc3c(=O)n(-c4ccc(C)cc4)ccc3c12 [16C] | < 20 nM | 3.9 nM
23 | COc1ccnc2sc3c(=O)n(-c4cccc(Cl)c4)ccc3c12 [16R] | < 20 nM | –
24 | C#CCNc1ccnc2sc3c(=O)n(-c4ccc(F)cc4)ccc3c12 [19AN] | 20 to 100 nM | –
25 | COCCNc1ccnc2sc3c(=O)n(-c4ccc(O)cc4)ccc3c12 [19J] | > 1000 nM | –
26 | COc1ccnc2sc3c(=O)n(-c4ccc(F)cc4)ccc3c12 [16H] | < 20 nM | –
27 | COc1ccc(-n2ccc3c(sc4nccc(OC)c43)c2=O)cc1F [16I] | < 20 nM | –

Row | Compound | IC50 (read-out: mGluR1 IC50 rating) | IC50 (read-out: mGluR1 IC50)
28 | COCCCNc1ccnc2sc3c(=O)n(-c4ccc(Cl)cc4)ccc3c12 [19H] | 20 to 100 nM | –
29 | COc1ccc(-n2ccc3c(sc4nccc(NCCCCCO)c43)c2=O)cc1 [19AH] | 20 to 100 nM | –
30 | C#CCNc1ccnc2sc3c(=O)n(-c4ccc(C)cc4)ccc3c12 [19AG] | < 20 nM | –
31 | COc1ccnc2sc3c(=O)n(-c4ccccc4Cl)ccc3c12 [16U] | 20 to 100 nM | –
32 | O=c1c2sc3nccc(NC4CC4)c3c2ccn1-c1ccc(F)cc1 [19AM] | 20 to 100 nM | –
33 | O=c1c2sc3nccc(O)c3c2ccn1-c1ccc(Cl)cc1 [17B] | 100 to 1000 nM | –
34 | COc1ncnc2sc3c(=O)n(-c4ccc(Cl)cc4)ccc3c12 [23C] | 20 to 100 nM | –
35 | COc1ccnc2sc3c(=O)n(-c4ccc(C#N)cc4)ccc3c12 [16X] | 20 to 100 nM | –
36 | CN(C)c1ccnc2sc3c(=O)n(-c4ccc(O)cc4)ccc3c12 [9H] | < 20 nM | –
37 | COc1ccnc2sc3c(=O)n(-c4ccc(Br)cc4)ccc3c12 [16E] | < 20 nM | 4.8 nM
38 | COc1ccnc2sc3c(=O)n(-c4ccc5c(c4)OCO5)ccc3c12 [16O] | < 20 nM | –
39 | O=c1c2sc3nccc(NCC(F)(F)F)c3c2ccn1-c1ccc(Cl)cc1 [19I] | 20 to 100 nM | –
40 | O=c1c2sc3nccc(NC4CC4)c3c2ccn1-c1ccc2scnc2c1 [19AR] | 20 to 100 nM | –
41 | C#CCNc1ccnc2sc3c(=O)n(-c4ccc(OC)c(F)c4)ccc3c12 [19AO] | 100 to 1000 nM | –
42 | COc1ccc(-n2ccc3c(sc4nccc(N(C)N)c43)c2=O)cc1 [19U] | < 20 nM | –
43 | Cc1ccc(-n2ccc3c(sc4nccc(NC[C@@H](C)O)c43)c2=O)cc1 [19M] | 20 to 100 nM | –
44 | C#CCNc1ccnc2sc3c(=O)n(-c4ccc(Br)cc4)ccc3c12 [19AZ] | < 20 nM | –
45 | COCCNc1ccnc2sc3c(=O)n(-c4ccc(C)cc4)ccc3c12 [19C] | 20 to 100 nM | –
46 | Cc1ccc(-n2ccc3c(sc4nccc(O)c43)c2=O)cc1 [17C] | 100 to 1000 nM | –
47 | N#Cc1ccc(-n2ccc3c(sc4nccc(NC5CC5)c43)c2=O)cc1 [19BC] | 20 to 100 nM | –
48 | COc1ccnc2sc3c(=O)n(-c4ccc(Cl)cc4)ccc3c12 [16B] | < 20 nM | 3.4 nM
49 | COc1ccnc2sc3c(=O)n(-c4ccc5ncsc5c4)ccc3c12 [16F] | 20 to 100 nM | –
50 | COc1ccc(-n2ccc3c(sc4nccc(NC5CC5)c43)c2=O)c(F)c1 [19BH] | 20 to 100 nM | –
51 | COc1ccc(-n2ccc3c(sc4nccc(NCCCO)c43)c2=O)cc1 [19Y] | 20 to 100 nM | –
52 | COc1ccnc2sc3c(=O)n(-c4cccc(C)c4)ccc3c12 [16T] | < 20 nM | –
53 | CCNc1ccnc2sc3c(=O)n(-c4ccc5scnc5c4)ccc3c12 [19AQ] | 20 to 100 nM | –
54 | CCNc1ccnc2sc3c(=O)n(-c4ccc(F)cc4)ccc3c12 [19AL] | 20 to 100 nM | –
